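Growth conditions: 96-well plates. Treatment: test compound, 48 hours, 5 concentrations. Analysis: linear interpolation between bracketing concentrations; unreached endpoints set to highest concentration. Here, GI50 denotes the concentration required for 50% inhibition of growth. The concentration for full growth arrest is given as TGI.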
Columns and labels:
Test in all cases: NCI tumour cell line growth inhibition, 48 h
[1] = test system: OVCAR-3 ovarian
[2] = test system: OVCAR-4 ovarian
[3] = test system: HS 578T breast
[4] = test system: CAKI-1 renal
[5] = test system: UACC-257 melanoma
[6] = test system: CCRF-CEM leukemia
[7] = test system: SF-539 CNS
[8] = test system: U251 CNS
[9] = test system: SW-620 colon
[10] = test system: HL-60(TB) leukemia
[11] = test system: HCC-2998 colon
[12] = test system: SK-OV-3 ovarian
[13] = test system: A498 renal
[14] = test system: OVCAR-8 ovarian
[15] = test system: HCT-116 colon
[16] = test system: HOP-92 NSCLC
[17] = test system: UO-31 renal
[18] = test system: MDA-MB-231 breast
[19] = test system: HCT-15 colon
[20] = test system: SN12C renal
[21] = test system: MDA-MB-435
[22] = test system: TK-10 renal
[23] = test system: SF-268 CNS
[24] = test system: SR leukemia
[25] = test system: T-47D breast
[26] = test system: OVCAR-5 ovarian
[27] = test system: K-562 leukemia
[28] = test system: MOLT-4 leukemia
[29] = test system: UACC-62 melanoma

SMILES: Cc1ccc(Nc2ccnc(Nc3cccc(C(N)=O)c3)n2)cc1O
- GI50 [1]: 6.65 µM
- TGI [1]: > 25 µM
- GI50 [2]: 6.19 µM
- TGI [2]: > 25 µM
- GI50 [3]: 0.742 µM
- TGI [3]: 8.98 µM
- GI50 [4]: 4.11 µM
- TGI [4]: 19 µM
- GI50 [5]: 15.5 µM
- TGI [5]: > 25 µM
- GI50 [6]: 7.99 µM
- TGI [6]: > 25 µM
- GI50 [7]: 3.46 µM
- TGI [7]: 11.1 µM
- GI50 [8]: 7.84 µM
- TGI [8]: > 25 µM
- GI50 [9]: 9.62 µM
- TGI [9]: > 25 µM
- GI50 [10]: 8.1 µM
- TGI [10]: > 25 µM
- GI50 [11]: 12.6 µM
- TGI [11]: > 25 µM
- GI50 [12]: 1.96 µM
- TGI [12]: 12.1 µM
- GI50 [13]: 7.31 µM
- TGI [13]: > 25 µM
- GI50 [14]: 6.51 µM
- TGI [14]: > 25 µM
- GI50 [15]: 8.01 µM
- TGI [15]: > 25 µM
- GI50 [16]: 0.891 µM
- TGI [16]: 8.25 µM
- GI50 [17]: 0.846 µM
- TGI [17]: 11.9 µM
- GI50 [18]: 4.27 µM
- TGI [18]: > 25 µM
- GI50 [19]: 7.16 µM
- TGI [19]: > 25 µM
- GI50 [20]: 3.7 µM
- TGI [20]: > 25 µM
- GI50 [21]: 7.98 µM
- TGI [21]: > 25 µM
- GI50 [22]: 6.39 µM
- TGI [22]: 17.6 µM
- GI50 [23]: 3.84 µM
- TGI [23]: > 17.7 µM
- GI50 [24]: 11.3 µM
- TGI [24]: > 25 µM
- GI50 [25]: 4.74 µM
- TGI [25]: > 21.2 µM
- GI50 [26]: 10.2 µM
- TGI [26]: > 25 µM
- GI50 [27]: 1.34 µM
- TGI [27]: > 25 µM
- GI50 [28]: 10.5 µM
- TGI [28]: > 25 µM
- GI50 [29]: 7.08 µM
- TGI [29]: > 25 µM

Source: PubChem BioAssay (NCI)
